Data published in patent US7628979B1, “Use of calco oil blue V in bait formulations for marking and controlling subterranean termites” (The United States of America as represented by the …, priority 2005, dated 2009).

Experiments:
[1] = tested on: Formosan subterranean termites; test: In-field marking and control, bait at infested trees, sites 1 and 2; format: in vivo; details: 250 ppm bait
Excerpt: (§1) Formosan subterranean termite and native subterranean termite infested trees (Water Oaks and Legastrums) in New Orleans, La. were chosen for this study. Three sites were selected located at the Southern Regional Research Center campus. Site 1 was located near the service building next to an old water oak tree, site 2 was located in the compound area near ligastrum trees, and site 3 near ligastrum trees outside the compound area. Sites 1 and 2 were active with Formosan subterranean termites and site 3 with Eastern subterranean termites.
(§2) The colored bait matrix at 250 ppm was encapsulated as described above and placed directly in the base of the trees where termites were foraging, making sure that the encapsulated colored bait matrix was covered with soil or with a piece of wood or brick on top of it to prevent desiccation. The bait was periodically inspected for consumption and termite activity. The field study started in early August and was completed by the end of the following June. During winter (December-February) termite activity decreased considerably, but by April termite activity and foraging resumed and the blue colored matrix was replaced by bait formulation containing 250 ppm of chitin synthesis inhibitors to kill the colonies. Diflubenzuron was used in 2 of the sites and chlorfluazuron was used in the remaining site.

[2] = tested on: Eastern subterranean termites; test: In-field marking and control, bait at infested trees, site 3; format: in vivo; details: Site 3 (Ligastrum), 250 ppm bait
Excerpt: as §1, §2

O=C(NC(=O)c1c(F)cccc1F)Nc1cc(Cl)c(Oc2ncc(C(F)(F)F)cc2Cl)c(Cl)c1 [Chlorfluazuron, 1-[3,5-dichloro-4-(3-chloro-5-trifluoromethyl-2-pyridyloxy)phenyl]-3-(2,6-difluorobenzoyl)urea, reference compound]
Bait consumption ([1]; Site 2 (Ligastrum), day 7): 0 g | Bait consumption ([1]; Site 2 (Ligastrum), day 14): 0 g | Bait consumption ([1]; Site 2 (Ligastrum), day 21): 0 g | Bait consumption ([1]; Site 2 (Ligastrum), day 27): 0 g | Bait consumption ([1]; Site 2 (Ligastrum), day 46): 0 g | Bait consumption ([1]; Site 2 (Ligastrum), day 56): 0 g | Bait consumption ([1]; Site 2 (Ligastrum), day 73): 0 g | Bait consumption ([1]; Site 2 (Ligastrum), day 83): 0 g | Bait consumption ([1]; Site 2 (Ligastrum), day 102): 0 g | Bait consumption ([1]; Site 2 (Ligastrum), day 159): 0 g | Bait consumption ([1]; Site 2 (Ligastrum), day 221): 0 g | Bait consumption ([1]; Site 2 (Ligastrum), day 251): 450 g | Bait consumption ([1]; Site 2 (Ligastrum), day 281): 750 g

O=C(NC(=O)c1c(F)cccc1F)Nc1ccc(Cl)cc1 [Diflubenzuron, 1-(4-chlorophenyl)-3-(2,6-difluorobenzoyl)urea, reference compound]
Bait consumption ([1]; Site 1 (Water Oak), day 7): 0 g | Bait consumption ([1]; Site 1 (Water Oak), day 14): 0 g | Bait consumption ([1]; Site 1 (Water Oak), day 21): 0 g | Bait consumption ([1]; Site 1 (Water Oak), day 27): 0 g | Bait consumption ([1]; Site 1 (Water Oak), day 46): 0 g | Bait consumption ([1]; Site 1 (Water Oak), day 56): 0 g | Bait consumption ([1]; Site 1 (Water Oak), day 73): 0 g | Bait consumption ([1]; Site 1 (Water Oak), day 83): 0 g | Bait consumption ([1]; Site 1 (Water Oak), day 102): 0 g | Bait consumption ([1]; Site 1 (Water Oak), day 159): 0 g | Bait consumption ([1]; Site 1 (Water Oak), day 221): 0 g | Bait consumption ([1]; Site 1 (Water Oak), day 251): 150 g | Bait consumption ([1]; Site 1 (Water Oak), day 281): 300 g | Bait consumption ([2]; day 7): 0 g | Bait consumption ([2]; day 14): 0 g | Bait consumption ([2]; day 21): 0 g | Bait consumption ([2]; day 27): 0 g | Bait consumption ([2]; day 46): 0 g | Bait consumption ([2]; day 56): 0 g | Bait consumption ([2]; day 73): 0 g | Bait consumption ([2]; day 83): 0 g | Bait consumption ([2]; day 102): 0 g | Bait consumption ([2]; day 159): 0 g | Bait consumption ([2]; day 221): 0 g | Bait consumption ([2]; day 251): 150 g | Bait consumption ([2]; day 281): 300 g
